Source: patent US20240425541A1, “OLIGOSACCHARIDE COMPOUNDS AND COMPLEXES” (priority 2021, published 2024)

Legend:
[1] = Hydrodynamic diameter of complexes by dynamic light scattering (DLS); type: physicochemical
Method: Sizes of complexes described in the present examples were analyzed by DynaPro PlateReader II, using dynamic light scattering (DLS) for calculating the hydrodynamic diameter of complexes. The formulations are measured by diluting the sample to 0.0125 mg/mL RNA in 120 μl of MGB (10 mM MES, pH 6.1, 5% D-Glucose) 5% in wells of a 96-well plate. Ten acquisitions are recorded per well, each lasting 5 seconds.

[2] = tested on: Glycoprotein (Gc) of the Crimean-Congo Hemorrhagic Fever Virus (CCHFV); type: in vivo
[3] = tested on: Hemagglutinin (HA) protein of the influenza strain California/7/2009; assay: Anti-Influenza HA IgG in serum by enzyme-linked immunosorbent assay after i.m. vaccination; type: in vivo; conditions: for IgG concentration against HA: oligosaccharide + Tween40 1:0.5, HA modRNA 0.5 μg i.m. prime/boost day 0/day 28, N/P6
hPBMCs = assay: Pro-inflammatory cytokine secretion by hPBMCs 24 hours after transfection (MSD Kit); type: cell-based, human; conditions: for Level of secretion of pro-inflammatory cytokines, IL-6, TNF-α, IL-1 and IFN-γ: oligosaccharide + Tween40 1:0.5, modRNA N/P 6, 24 hours, 10^6 hPBMCs
Method: All groups received modRNA formulated at N/P 6. Formulations were complexed with RNA in MBG Buffer (final concentration 5% w/v Glucose, 10 mM MES, pH 6.1), at RNA final concentration of 0.15 mg/ml and the mixing ratio of the RNA containing solution and the oligosaccharide+Tween40 containing solution was 9:1 (v:v) for all the cases. IL-6, TNF-α, IL-1p and IFN-γ secretion after 24 hours of transfection of 10^6 hPMBCs was evaluated in the supernatants using MSD Kit Standard Protocol.
FIG. 19A is a plot illustrating IL-6 secretion by hPBMCs upon exposure to different doses of tested formulations. FIG. 19B is a plot illustrating TNF-α secretion by hPBMCs upon exposure to different doses of tested formulations. FIG. 19C is a plot illustrating IL-1p secretion by hPBMCs upon exposure to different doses of tested formulations. FIG. 19D is a plot illustrating IFN-γ secretion by hPBMCs upon exposure to different doses of tested formulations. In the second part of the experiment, the same tested formulations were used in a vaccination study.

CCHFV-Gc peptides = type: in vivo, Crimean-Congo Hemorrhagic Fever Virus; conditions: JLF99 + Tween40 1:0.5, Gc saRNA 1.3 μg i.m. prime/boost, C57BL/6 IFNAR −/− mice
Influenza = assay: Virus neutralizing titers by VNT Assay after i.m. vaccination; type: in vivo, influenza strain California/7/2009; conditions: JLF99 + Tween20 1:0.5, HA modRNA 1 μg i.m. prime/boost d0/d28, N/P 6
From the text: The animals were subjected to non-invasive serological surveillance over 49 days at different time points (day 0, day 14, day 21, day 28, day 49) and spleen was extracted at the end of the experiment for quantification of CD4/CD8 T-Cell response to Influenza HA peptides. Anti-Influenza HA antibodies in serum were quantified by enzyme-linked immunosorbent assay. Virus neutralizing titers were quantified by VNT Assay. CD4/CD8 T-Cell response was quantified by via IFN-ELISPOT of Splenocytes. FIG. 16A illustrates serological levels of specific IgG against HA over the course of the experiment. FIG. 16B illustrates Influenza specific neutralizing titers over the course of the experiment. FIG. 16C illustrates end-point titration of the serological levels of specific IgG against HA. FIG. 16D illustrates the CD8/CD4 response against HA-peptide pools.

Influenza HA peptides = assay: CD4/CD8 T-Cell response to Influenza HA peptides by IFN-ELISPOT of splenocytes after i.m. vaccination; type: in vivo, influenza strain California/7/2009; conditions: JLF99 + Tween20 1:0.5, HA modRNA 1 μg i.m. prime/boost d0/d28, N/P 6
female BALB/c mice = assay: In-vivo luciferase expression (bioluminescence) in applied tissue after i.m. injection of formulated modRNA or saRNA; conditions: modRNA i.m., N/P 6
Method: Eighteen female BALB/c mice were divided into […] study groups. All groups received the same amount of formulated luciferase encoding modRNA or saRNA (1 μg), applied i.m. to each leg. At […] time points (6 hours, 24 hours, 72 hours, 6 days, 8 days, 20 days), in-vivo luciferase expression in applied tissue was measured. Three modRNA groups were formulated with JRL13 at three different N/P Ratios (1, 6, or 12) and three saRNA groups were formulated with JRL13 at three different N/P Ratios (either 1, 6 or 12). N/P ratio is calculated based on the JRL13-RNA charges ratio, as described herein. […] FIG. 4C is a bar graph illustrating quantified bioluminescence over the duration of the experiment for example compositions having indicated N/P ratios comprising modRNA and JRL13. FIG. 4D is a bar graph illustrating quantified bioluminescence over the duration of the experiment for example compositions having indicated N/P ratios comprising saRNA and JRL13.
The present example examines the impact of different cationic groups on intramuscular delivery of saRNA. […] At six time points (6 hours, 24 hours, 72 hours, 6 days, 9 days, 20 days), in-vivo luciferase expression in applied tissue was measured. […] FIG. 5B is a bar graph illustrating quantified bioluminescence over the duration of the experiment and normalized to the JRL13-saRNA group. […]

[4] = JLF99 + Tween20 1:0.5, HA modRNA 1 μg i.m. prime/boost d0/d28, N/P 6

## CCCCCCCCCC(=O)OC1C(OC(=O)CCCCCCCCC)[C@H](OC(=O)CCCCCCCCC)C(CSCCNC(=S)NCCN(C)C)O[C@@H]1O[C@H]1OC(CSCCNC(=S)NCCN(C)C)[C@@H](OC(=O)CCCCCCCCC)C(OC(=O)CCCCCCCCC)C1OC(=O)CCCCCCCCC (stereo partly drawn) [JLF41]
[1]; modRNA
  Difference in particle size between N/P 1 and N/P 6: greater difference

## CCCCCCCCCC(=O)OC1C(OC(=O)CCCCCCCCC)[C@H](OC(=O)CCCCCCCCC)C(CSCCNC(=S)NCCN2CCOCC2)O[C@@H]1O[C@H]1OC(CSCCNC(=S)NCCN2CCOCC2)[C@@H](OC(=O)CCCCCCCCC)C(OC(=O)CCCCCCCCC)C1OC(=O)CCCCCCCCC (stereo partly drawn) [JLF99]
[2]; JLF99 + Tween40 1:0.5, Gc saRNA 1.3 μg i.m. prime/boost d0/d28, N/P6, C57BL/6 IFNAR −/− mice
  Immunological response to low immunogenic antigen CCHFV-Gc: strong immunological response
[2]; after d28 (prior boost), JLF99 + Tween40 1:0.5, Gc saRNA 1.3 μg i.m., C57BL/6 IFNAR −/− mice
  Antibody levels versus LNP benchmark: identical to the ones achieved by the LNP benchmark
[2]; d14, JLF99 + Tween40 1:0.5, Gc saRNA 1.3 μg i.m., C57BL/6 IFNAR −/− mice
  Antibody level versus LNP benchmark: lower than the LNP
[3]; [4]
  IgG against HA-antigen over the course of the experiment versus LNP benchmark: no apparent differences
  Serological concentration of IgG at the end-point (day 49): comparable to the LNP group
[3]; JLF99 + Tween20 1:0.5, taRNA, saRNA or modRNA 1 μg i.m. prime/boost, N/P 6
  Delivery of and immune response to different RNA platforms: functionally delivered all the RNAs upon i.m injection and elicited a strong immune response
[3]
  IgG concentration against HA: then by JLF99 and JLF218
hPBMCs; oligosaccharide + Tween40 1:0.5, modRNA N/P 6
  Adjuvanticity: strong adjuvanticity
[1]; saRNA, N/P 6
  Hydrodynamic diameter: about 150 nm
CCHFV-Gc peptides
  T-cell responses against Gc-peptides versus LNP benchmark: equally strong
Influenza
  Virus neutralizing titers versus LNP benchmark: same findings
Influenza HA peptides
  CD4-CD8 response versus LNP benchmark: no significant difference
Female BALB/c mice
  modRNA expression (bioluminescence normalized to the JLF41-modRNA group): promising modRNA expression

## CCCCCCCCCC(=O)OC1C(OC(=O)CCCCCCCCC)[C@H](OC(=O)CCCCCCCCC)C(CSCCNC(=S)NCCn2ccnc2)O[C@@H]1O[C@H]1OC(CSCCNC(=S)NCCn2ccnc2)[C@@H](OC(=O)CCCCCCCCC)C(OC(=O)CCCCCCCCC)C1OC(=O)CCCCCCCCC (stereo partly drawn) [JLF110]
hPBMCs
  Level of secretion of pro-inflammatory cytokines, IL-6, TNF-α, IL-1 and IFN-γ: medium levels of secretion

## CCCCCCCCCC(=O)OC[C@@]1(O[C@H]2OC(CSCCNC(=S)NCCN3CCOCC3)[C@@H](OC(=O)CCCCCCCCC)C(OC(=O)CCCCCCCCC)C2OC(=O)CCCCCCCCC)O[C@H](CSCCNC(=S)NCCN2CCOCC2)[C@@H](OC(=O)CCCCCCCCC)[C@@H]1OC(=O)CCCCCCCCC (stereo partly drawn) [JLF218]
[3]
  IgG concentration against HA: then by JLF99 and JLF218

## CCCCCCCCCC(=O)OC1C(OC(=O)CCCCCCCCC)[C@H](OC(=O)CCCCCCCCC)C(CSCCNC(=S)NCCN2CCC(C(N)=O)CC2)O[C@@H]1O[C@H]1OC(CSCCNC(=S)NCCN2CCC(C(N)=O)CC2)[C@@H](OC(=O)CCCCCCCCC)C(OC(=O)CCCCCCCCC)C1OC(=O)CCCCCCCCC (stereo partly drawn) [JLF244]
[3]
  IgG concentration against HA: highest IgG concentration
hPBMCs
  Level of secretion of pro-inflammatory cytokines, IL-6, TNF-α, IL-1 and IFN-γ: highest level of secretion
